The record followed here is ChEMBL document CHEMBL1201862, “PubChem BioAssay data set” (2004).

Some test systems named below: ACHN; DU-145; RPMI-8226; HL-60; COLO 205; SW-620; SR; SF-539; UACC-62; NCI-H522; KM12; RXF 393; CAKI-1; MCF7; NCI-H460; LOX IMVI; CCRF-CEM; BT-549; HOP-62; NCI-H226.
Common to all, as to assay: NCI tumour cell line growth inhibition, 48 h

Where “and” joins values, the source holds several entries; their conditions need not be identical. Equal values may be shown once.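 Step 1: Grow cells in 96-well plates. Step 2: Expose to compound for 48 hours at 5 concentrations. Step 3: Interpolate endpoints linearly; if unreached, use highest concentration. GI50 is the concentration that inhibits growth by half.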 Calls of active or inactive are those of the source. No stated cut-off is given here; in the data, active = GI50 up to about 1.1 µM and inactive = higher.

As for `C=C1C(=O)OC2/C=C(/C)C3(O)OC(C)(CC(OC(=O)C(C)C)C12)CC3OC(C)=O` (stereo not given), the GI50 with ACHN was 2.3 µM (inactive); in the assay with DU-145, 8.26 µM (inactive); in the assay with RPMI-8226, 4.43 µM (inactive); in the assay with HL-60 it was 2.64 µM (inactive); in the assay with COLO 205, 3.84 µM (inactive); with SW-620 it was 4.19 µM (inactive). In addition, the GI50 in the assay with SR is 2.52 µM (inactive); in the assay on SF-539 it was 3.05 µM (inactive); with UACC-62, 11 µM (inactive); in the assay on NCI-H522, 1.91 µM (inactive); with KM12 it was 16.2 µM (inactive); with RXF 393, 1.47 µM (inactive). For the same compound, the GI50 is 2.48 µM (inactive) in the assay on CAKI-1; 3.7 µM (inactive) in the assay on MCF7; 3.9 µM (inactive) in the assay with NCI-H460; 8.87 µM (inactive) with LOX IMVI; 2.79 µM (inactive) in the assay on CCRF-CEM; 5.79 µM (inactive) with BT-549. For the same compound, the GI50 in the assay on HOP-62 is 30.4 µM (inactive); with NCI-H226 it was 35.5 µM (inactive).

For the compound `CC(C)=C1C(=O)C[C@]2(C)C[C@H]3/C(=C(/C)CCC12)CC[C@@]3(C)O` (stereo not given in full), the GI50 in the assay with ACHN is > 50 µM (inactive); in the assay with DU-145, > 50 µM (inactive); in the assay on RPMI-8226, > 50 µM (inactive); in the assay on HL-60 it was 11.3 µM (inactive); in the assay with COLO 205, 45 µM (inactive); in the assay with SW-620, > 50 µM (inactive). The GI50 in the assay with SR was 20.7 µM (inactive); in the assay on SF-539, > 50 µM (inactive); in the assay with UACC-62, > 50 µM (inactive); with NCI-H522, 29 µM (inactive); with KM12, 18.2 µM (inactive); with RXF 393 it was 40.9 µM (inactive). Moreover, the GI50 with CAKI-1 was > 50 µM (inactive); with MCF7, > 50 µM (inactive); in the assay with LOX IMVI, > 50 µM (inactive); with CCRF-CEM, 20.3 µM (inactive); in the assay on BT-549, > 50 µM (inactive); with HOP-62, > 50 µM (inactive). For the same compound, the GI50 in the assay with NCI-H226 is > 50 µM (inactive).

As for `Cn1cc(NC(=O)Nc2cc(C(=O)Nc3cc(C(=O)Nc4ccc5cc(S(=O)(=O)O)cc(S(=O)(=O)O)c5c4)n(C)c3)n(C)c2)cc1C(=O)Nc1cc(C(=O)Nc2ccc3cc(S(=O)(=O)O)cc(S(=O)(=O)O)c3c2)n(C)c1`, the GI50 in the assay with ACHN, with DU-145, in the assay with RPMI-8226, in the assay on HL-60, in the assay on COLO 205 and in the assay with SW-620 was > 100 µM (inactive) in each case. Besides, the GI50 in the assay with SR, in the assay on SF-539, in the assay on UACC-62, in the assay on NCI-H522, in the assay on KM12 and in the assay with RXF 393 was > 100 µM (inactive) in each case. In addition, the GI50 in the assay with MCF7, in the assay on NCI-H460, in the assay on LOX IMVI, with CCRF-CEM, with BT-549 and in the assay on HOP-62 was > 100 µM (inactive) throughout. The GI50 with NCI-H226 was > 100 µM (inactive).

For `C=CCOCn1ccc(NC(=O)c2ccccc2)nc1=O`, the GI50 in the assay with ACHN, in the assay on DU-145, with RPMI-8226, with HL-60, in the assay on COLO 205 and in the assay with SW-620 was > 100 µM (inactive) each time. Also, the GI50 in the assay with SR, with SF-539, in the assay on UACC-62, with NCI-H522, in the assay with KM12 and in the assay on CAKI-1 was > 100 µM (inactive) each time. Moreover, the GI50 with MCF7, in the assay with NCI-H460, in the assay with LOX IMVI, in the assay on CCRF-CEM, with BT-549 and in the assay on HOP-62 was > 100 µM (inactive) in each case. Moreover, in the assay with NCI-H226, the GI50 is > 100 µM (inactive).

For the compound `Cc1cn(C2CC(N(O)Cc3ccccc3)C(CO[Si](C)(C)C(C)(C)C)O2)c(=O)[nH]c1=O` (stereo not given), the GI50 was 26.7 µM (inactive) and 17.6 µM (inactive) with ACHN; 17.8 µM (inactive) and 25.4 µM (inactive) in the assay with DU-145; 30.6 µM (inactive) in the assay with RPMI-8226; 29.8 µM (inactive) and 36.5 µM (inactive) with HL-60; 18.5 µM (inactive) and 20.9 µM (inactive) in the assay on COLO 205; 19.4 µM (inactive) and 25.8 µM (inactive) in the assay with SW-620. The GI50 is 31.6 µM (inactive) in the assay with SR; 15.5 µM (inactive) and 18.1 µM (inactive) in the assay with SF-539; 12.2 µM (inactive) and 16.4 µM (inactive) in the assay on UACC-62; 18 µM (inactive) in the assay with NCI-H522; 23 µM (inactive) and 17.2 µM (inactive) with KM12; 13.6 µM (inactive) with RXF 393. Besides, the GI50 is 17 µM (inactive) and 26.5 µM (inactive) in the assay on CAKI-1; 19.6 µM (inactive) and 30.9 µM (inactive) with MCF7; 17.9 µM (inactive) and 17.7 µM (inactive) in the assay on NCI-H460; 30.1 µM (inactive) in the assay with CCRF-CEM; 16.4 µM (inactive) and 16.3 µM (inactive) in the assay with BT-549; 19.5 µM (inactive) and 16.3 µM (inactive) with HOP-62. Besides, in the assay with NCI-H226, the GI50 was 18.6 µM (inactive) and 18.8 µM (inactive).

With `Cc1cn(CCC(N)C(=O)O)c(=O)[nH]c1=O` (stereo not given), the GI50 in the assay with ACHN, in the assay with DU-145, in the assay with RPMI-8226, in the assay on HL-60, in the assay with COLO 205 and in the assay on SW-620 was > 100 µM (inactive) throughout. For the same compound, the GI50 with SR, in the assay with SF-539, in the assay with UACC-62, in the assay with NCI-H522, in the assay with KM12 and in the assay with RXF 393 was > 100 µM (inactive) throughout. Moreover, the GI50 in the assay on MCF7, in the assay with NCI-H460, with LOX IMVI, in the assay with CCRF-CEM, in the assay with BT-549 and with HOP-62 was > 100 µM (inactive) in each case. In addition, the GI50 in the assay on NCI-H226 was > 100 µM (inactive).

Take `NNC1=Nc2ccc(Cl)cc2C(=S)N2CSCC12` (stereo not given): the GI50 in the assay on ACHN, with DU-145, in the assay on RPMI-8226, in the assay with COLO 205, with SW-620 and in the assay on SR was > 100 µM (inactive) throughout. The GI50 in the assay on UACC-62 is > 100 µM (inactive); with NCI-H522 it was > 100 µM (inactive); in the assay with KM12, 34.6 µM (inactive); in the assay with RXF 393 it was > 100 µM (inactive); in the assay on CAKI-1, > 100 µM (inactive); in the assay with MCF7, > 100 µM (inactive). Also, the GI50 in the assay with NCI-H460, with LOX IMVI, in the assay on CCRF-CEM, in the assay with BT-549, in the assay with HOP-62 and with NCI-H226 was > 100 µM (inactive) in each case.

Turning to `O=C1c2ccccc2C(=O)c2c(NCCCN3CCOCC3)ccc(NCCCN3CCOCC3)c21`, the GI50 was 2.07 µM (inactive) in the assay on ACHN; < 0.01 µM (active) in the assay on DU-145; 2 µM (inactive) in the assay on RPMI-8226; 2.45 µM (inactive) in the assay with HL-60; 3.97 µM (inactive) in the assay with SW-620; 5.57 µM (inactive) in the assay on SR. Further, the GI50 in the assay with SF-539 was 1.82 µM (inactive); in the assay with UACC-62, 2.03 µM (inactive); in the assay with NCI-H522, 0.67 µM (active); in the assay with KM12, 3.12 µM (inactive); in the assay on RXF 393, 8.36 µM (inactive); in the assay with CAKI-1, 4.45 µM (inactive). For the same compound, the GI50 is 5.9 µM (inactive) with MCF7; 1.54 µM (inactive) with NCI-H460; 1.54 µM (inactive) in the assay with LOX IMVI; 2.59 µM (inactive) with CCRF-CEM; 6.62 µM (inactive) in the assay on BT-549; 2.12 µM (inactive) in the assay with HOP-62. In addition, in the assay with NCI-H226, the GI50 was 6.59 µM (inactive).

With `COc1ccc([C@]23CCN(S(=O)(=O)c4ccc(C)cc4)[C@H]2[C@H](CO)C2(CC3)OCC(C)(C)CO2)cc1OC`, the GI50 with ACHN, in the assay on DU-145, in the assay on RPMI-8226, in the assay on HL-60, in the assay on COLO 205 and with SW-620 was > 100 µM (inactive) in each case. The GI50 with SR was > 100 µM (inactive); in the assay with UACC-62, > 100 µM (inactive); in the assay with NCI-H522 it was > 100 µM (inactive); in the assay on KM12, > 100 µM (inactive); with RXF 393 it was 98.6 µM (inactive); with CAKI-1 it was > 100 µM (inactive). Moreover, the GI50 in the assay on MCF7, in the assay on NCI-H460, in the assay on LOX IMVI, in the assay with CCRF-CEM, in the assay with BT-549 and in the assay with HOP-62 was > 100 µM (inactive) throughout. For the same compound, the GI50 with NCI-H226 was > 100 µM (inactive).

As to `O=C(Nc1ccccc1)N(C1=NCC(CI)S1)c1ccc(F)cc1F` (stereo not given), the GI50 with ACHN is > 100 µM (inactive); in the assay with DU-145, > 100 µM (inactive); with RPMI-8226, 56.2 µM (inactive); with HL-60, 20.1 µM (inactive); in the assay with COLO 205, 46 µM (inactive); with SW-620 it was 62.1 µM (inactive). Besides, the GI50 in the assay with SR is 12.2 µM (inactive); with SF-539, 59.3 µM (inactive); in the assay on UACC-62, 25.6 µM (inactive); with NCI-H522 it was 37.9 µM (inactive); in the assay with KM12, 45.6 µM (inactive); in the assay with RXF 393, 24.3 µM (inactive). The GI50 in the assay with CAKI-1 was 25.4 µM (inactive); in the assay with MCF7, 41.6 µM (inactive); with LOX IMVI, 16 µM (inactive); in the assay with CCRF-CEM, 15.3 µM (inactive); with BT-549, 26.5 µM (inactive); in the assay with HOP-62, > 100 µM (inactive). The GI50 with NCI-H226 is 87.3 µM (inactive).
